For series [1], the system named is Ca2+ ion channel activity evoked by compound 4 in SH-SY5Y cells. The experiment in a line: Inhibitor analysis of Ca2+ ion channel activity evoked by compound 4. Type of series: cell-based, human. Here is the method:
The intracellular free Ca^2+ concentration [Ca^2+]i was measured in confluent monolayers of SH-SY5Y or […] cells with the Ca^2+-sensitive fluorescent indicator Fluo-4 NW according to the instruction (Fluo-4 NW Calcium Assay Kit, Thermo Fisher Scientific, cat. No. F36206) (as referenced by […] al.. Changes in [Ca^2+]i were measured from the fluorescence emitted at 516 nm due to alternate excitation at 494 nm using the microplate reader Tecan Infinite M1000 (Austria). Intracellular Ca^2+ concentration was calculated from a standard curve with known amounts of free Ca^2+ using the standard Ca^2+-EGTA buffering system (Calcium Calibration Buffer Kit, cat. No.C-3008, Thermo Fisher Scientific). […] The commercial calcium agonist compound Bay […] was used as the reference compound.

Series [2] relates to carbachol-dependent mobilization of intracellular Ca2+ in SH-SY5Y cells. The experiment in a line: Antagonist effect on carbachol-evoked intracellular Ca2+ mobilization (Fluo-4 NW). It is filed as cell-based, human. The conditions noted are these: Homo sapiens. On the procedure: (§1) The intracellular free Ca^2+ concentration [Ca^2+]i was measured in confluent monolayers of SH-SY5Y or A7R5 cells with the Ca^2+-sensitive fluorescent indicator Fluo-4 NW according to the instruction (Fluo-4 NW Calcium Assay Kit, Thermo Fisher Scientific, cat. No. F36206) (as referenced by Vilskersts et al..
The investigation of Ca^2+ channel blocking activity of DHP derivatives was based on the effect of DHP on carbachol evoked intracellular Ca^2+ mobilization in human neuroblastoma cells.
The cells were preincubated in the dark for 15 minutes with the tested compounds at concentrations ranging from 0.16 to 100 μM. The application of carbachol (100 nM) to […] NW loaded SH-SY5Y cells stimulated a classic “biphasic” response. The well-known 3rd generation calcium channel inhibitor amlodipine, which is also claimed to act as antioxidant and free radical scavenger, was used as the positive control (at the concentration range from 20 to 100 μM).
(§2) Changes in [Ca^2+]i were measured from the fluorescence emitted at 516 nm due to alternate excitation at 494 nm using the microplate reader Tecan Infinite M1000 (Austria). Intracellular Ca^2+ concentration was calculated from a standard curve with known amounts of free Ca^2+ using the standard Ca^2+-EGTA buffering system (Calcium Calibration Buffer Kit, cat. No.C-3008, Thermo Fisher Scientific).
The IC50 values for the tested compounds were calculated using GraphPad Prism 4.0 software.

The test system is the same in series [3]. Set-up: method as in earlier work. The conditions noted are these: SH-SY5Y cells stimulated by 100 nM carbachol; read-out: Antagonist effect IC50; cited from earlier work.
The subject of series [4] is [Ca2+]i in SH-SY5Y cells. The experiment in a line: Ca2+ channel agonist activity, [Ca2+]i in Fluo-4 NW-loaded cells. It is filed as cell-based, human. The conditions noted are these: for Agonist activity (RFU, 100 μM): compound at 100 μM. On the procedure: as §1
(§3) For the investigation of Ca^2+ channel agonist activity of the DHP compound, 4 […] NW loaded SH-SY5Y or A7R5 cells were stimulated by the addition of compound 4 at the concentration range from 4 to 100 μM. The well-known calcium channel agonist Bay K8644 was used as the positive control (at the concentration range from 4 to 100 μM).
as §2
In some experiments, […] NW loaded cells were washed and placed in normal Ca^2+-free HEPES-buffered replacement medium. In Ca^2+ restoration experiments, Ca^2+ was initially absent from the medium and was restored to 1 mM after 870 s of stimulation with compound 4.

The subject of series [5] is isolated rat aortic ring. The experiment in a line: Isolated rat aortic ring model, KCl precontracted denuded rings. The conditions noted are these: for EC50: KCl precontracted denuded rat aortic rings, read-out: Calcium channel blocking activity EC50. On the procedure:
The experimental animal (one rat) was anesthetized with pentobarbital sodium (60 mg/kg i.p.). Once deep anesthesia was achieved, the thoracic aorta was dissected, placed in ice cold Krebs-Henseleit (K-H) buffer (content in mM: NaCl 118, KCl 4.7, CaCl2 2.5, MgCl2 1.64, NaHCO3 24.88, KH2PO4 1.18, glucose 10.0, sodium pyruvate 5.0, and disodium salt of ethylenediaminetetraacetic acid 0.05), cleaned from connective and fatty tissues, and cut into 3-4 mm long rings. Endothelium was mechanically scraped off with the tips of forceps, and the aortic rings were mounted between two stainless steel hooks attached to an isometric force transducer in 20 ml organ bath in K-H buffer bubbled with 95% O2 and 5% CO2 at 37°C (one separate aortic ring was used for each tested compound). Passive tension was adjusted to approximately 40 mN over a 60 min equilibration period. The experiment was started after the equilibration period by adding KCl solution to obtain a concentration of 50 mM. Addition of KCl induced contraction of the aortic rings, and a plateau of contraction was reached about […]. Thereafter, the tested compound solutions in dimethyl sulfoxide were added to the aortic rings in order to obtain the final concentrations in the range of 10^−10-10^−5 M. Changes in the tension were recorded using LabChart Pro software from ADInstruments (https://www.adinstruments.com/products/labchart/labchart-for-research). The EC50 values of the tested compounds were calculated using Prism 3.0 software from GraphPad (GraphPad Software Inc., USA) (https://www.graphpad.com/scientific-software/prism/). The experimental procedures involving experimental animals were carried out in accordance with the guidelines of the European Community, LR local laws and policies, and were approved by the Latvian Animal Protection Ethical Committee, the Food and Veterinary Service, Riga, Latvia.

A short description of series [6]: Electrochemical oxidation potentials by cyclic voltammetry. It is filed as physicochemical. The conditions noted are these: glassy carbon electrode, vs Ag/Ag+, acetonitrile, 0.1 M TBABF4. On the procedure:
The cyclic voltammetry experiments were carried out on the PARSTAT 2273 electrochemical system. A stationary glassy carbon disk electrode (d = 0.8 mm) served as the working electrode, while the counter electrode was a Pt wire. The oxidation potentials were measured relative to Ag/Ag^+ reference electrode. Acetonitrile was dried over P2O5 and distilled; the distillate was stored over CaH2 and redistilled just before use. Recrystallized tetrabutylammonium tetrafluoroborate (TBABF4) was used as a supporting electrolyte at 0.1 M concentration.

For series [7], the system named is [Ca2+]i in A7R5 cells. The experiment in a line: Ca2+ channel agonist activity in A7R5 aorta smooth muscle cells. It is filed as cell-based, rat. The conditions noted are these: 20 to 100 μM. Here is the method:
as §1, §3, §2

Where [8] appears, read: SH-SY5Y cells, 100 nM carbachol, 15 min preincubation, read-out: Antagonist activity (IC50).

Molecules are shown by their SMILES. Like-named read-outs stand apart in the source and are kept apart here.

A word on the inhibition: it is the relative decrease from the control value, in per cent. Broadly, the IC50 is the midpoint of a concentration-inhibition curve. By EC50 is commonly meant the concentration that produces a half-maximal response. `CCOC(=O)C1=C(COCCN)NC(C)=C(C(=O)OC)C1c1ccccc1Cl` (stereo not shown) [Amlodipine]: the inhibition at 100 µM in series [1] (Homo sapiens, SH-SY5Y, inhibitor 100 μM, 15 min preincubation, 100 μM compound 4) is 50 ± 11%. Further, the IC50 was 100 µM in series [1] (Homo sapiens, 100 μM compound 4, SH-SY5Y cells, read-out: IC50 for inhibition of Ca2+ ion channel activity evoked by compound 4); 11 ± 2 µM in series [2] (setting [8]); 13 µM in series [3]. Besides, the “Inhibition (%) of Ca2+ ion channel activity evoked by compound 4” value is recorded as 0 ± 6% in series [1] (inhibitor 4 μM, 100 μM compound 4) and 10 ± 11% in series [1] (inhibitor 20 μM, 100 μM compound 4). Besides, the “Phase of the compound 4 response that is inhibited” value in series [1] (inhibitor 100 μM, 100 μM compound 4) was “inhibited the first phase of the response”. The “Agonist activity (RFU, 100 μM)” value in series [4] is given as “No effect”. In addition, in series [5], the EC50 came out at 14.3 ± 0.3 nM.
Turning to `CCOC(=O)COC(=O)C1=C(C)NC(C)=C(C(=O)OCC(=O)OCC)C1c1ccc[n+](C(C)C(=O)c2ccc(OCc3ccccc3)cc2)c1` (stereo not shown) [Compound 4], the inhibition at 8 µM in series [2] (SH-SY5Y, compound at 0,8 μM, read-out: Inhibition (%) of Ca2+ channels activated with carbachol) was 4 ± 10%. The inhibition at 16 µM in series [2] (SH-SY5Y, compound at 0,16 μM, read-out: Inhibition (%) of Ca2+ channels activated with carbachol) is -16 ± 10%. Further, in series [2] (SH-SY5Y, compound at 4 μM, read-out: Inhibition (%) of Ca2+ channels activated with carbachol), the inhibition at 4 µM amounted to 11 ± 12%. Also, the inhibition at 20 µM in series [2] (SH-SY5Y, compound at 20 μM, read-out: Inhibition (%) of Ca2+ channels activated with carbachol) was determined as 71 ± 9%. Further, the IC50 worked out at 12 ± 2 µM in series [2] (setting [8]) and 12 ± 2 µM in series [2] (Table 5, SH-SY5Y cells, read-out: IC50, antagonist effect on Ca2+ channels activated with carbachol). This molecule also yielded an Electrooxidation potential in series [6] of 1.68 V. Further, the “Ca2+ ion channel agonist activity” value in series [7] is recorded as “dose-dependent agonist activity”. Besides, the “Decrease of intracellular [Ca2+]i signal in the absence of extracellular Ca2+” value in series [4] (100 μM compound, compared to presence of extracellular Ca2+) is 50%. For the same molecule, the “Agonist activity (RFU, 100 μM)” value in series [4] is 14425 ± 1072 RFU. In series [5], the EC50 was determined as 691 ± 167 nM. Also, the “Calcium channel blocking activity relative to amlodipine (times weaker)” value in series [5] (isolated rat aortic ring model) is “about 50 times”. In series [5] (isolated rat aortic rings), the “Agonist effect (contractions of aorta rings)” value was “no agonist effect”.

These data come from publication PMC7139875, “4-Pyridinio-1,4-Dihydropyridines as Calcium Ion Transport Modulators: Antagonist, Agonist, and Dual Action” (Oxidative Medicine and Cellular Longevity, 2020).
